The subject of one test is MRSA N315. The test can be described thus: In vitro infectivity assay (MIC), broth dilution, Exp. Ex. 1-1. Type of test: cell-based, Staphylococcus aureus. Particulars: MRSA N315, Mueller-Hinton broth, 35° C., 24 hours. The method, then: (§1) The antibacterial activities were measured based on broth dilution techniques of international standards (Clinical Laboratory Standards Institute: CLSI). The activities were shown by minimum inhibitory concentrations (MICs) determined by inoculating the above-mentioned strains at a concentration of about 10^5 […] into Mueller-Hinton broth (manufactured by Difco) containing 0.85% NaCl in 96-well microplates and incubating the plates at 35° C. for 24 hours. Measurement was carried out three times.
(§2) The antibacterial activities of the compounds of the present invention against various strains such as methicillin-resistant Staphylococcus aureus (MRSA), vancomycin intermediate-resistant Staphylococcus aureus (VISA), methicillin-sensitive Staphylococcus aureus (MSSA), and vancomycin-resistant enterococci (VRE) were examined. Of the bacteria used in MIC measurement in this test example, clinical bacteria of MRSA (OM481 strain and OM584 strain) were supplied from Okayama University Hospital (Japan). An MRSA strain N315, a vancomycin intermediate-resistant Staphylococcus aureus (VISA) strain Mu50, and a methicillin-sensitive Staphylococcus aureus (MSSA) strain FDA 209P were used as controls. Vancomycin-resistant enterococcus (VRE) strains NCTC 12201 and FN-1 were supplied from the National Institute of Infectious Disease (Japan).

The next test has as its system MRSA OM481. Described as above. Type of test: cell-based, Staphylococcus aureus. The settings on record: MRSA OM481, Mueller-Hinton broth, 35° C., 24 hours. The method, then: as §1, §2
The test system of another test is MRSA OM58. The test is described as above. In kind it is cell-based, Staphylococcus aureus. The settings on record: MRSA OM58, Mueller-Hinton broth, 35° C., 24 hours. The method, then:
as §1, §2

The test system of the next test is MSSA FDA 209P. The description is as above. In kind it is cell-based, Staphylococcus aureus. The settings on record: MSSA FDA 209P, Mueller-Hinton broth, 35° C., 24 hours. The method, then:
as §1, §2

The subject of the next test is VISA Mu50. The test is described as above. In kind it is cell-based, Staphylococcus aureus. The settings on record: VISA Mu50; Mueller-Hinton broth, 35° C., 24 hours. The method, then: as §1, §2
The subject of another test is VRE FN-1. The test is described as above. Type of test: cell-based, enterococci. Particulars: VRE FN-1; Mueller-Hinton broth, 35° C., 24 hours. The method, then:
as §1, §2

Another test deals with VRE NCTC12201. The test is described as above. In kind it is cell-based, enterococci. The settings on record: VRE NCTC12201; Mueller-Hinton broth, 35° C., 24 hours. The method, then: as §1, §2
Test [1] addresses T1, DNA gyrase of Escherichia coli (Escherichia coli, UniProt P0AES4+P0AES6).
T1 construct: purchased John Innes Enterprises #K0001
Description: DNA gyrase inhibition (supercoiling assay kit), Exp. Ex. 1-2. Type of test: biochemical. The settings on record: E. coli DNA gyrase supercoiling, relaxed pBR322, 37° C., 30 minutes. The method, then:
(§3) As a kit for measurement of DNA gyrase of Escherichia coli, a product purchased from John Innes Enterprises (Gyrase Supercoiling assay kit #K0001) was used. Relaxed DNA was modified with gyrase into supercoiled DNA, and reaction products were separated by electrophoresis depending on the sizes of the molecular weights to examine anti-gyrase effects (IC50). One unit (1 U) of DNA gyrase and […] of relaxed pBR322 DNA were added to […] of the reaction solution, and the mixture was allowed to react at 37° C. for 30 minutes in the presence of 35 mM Tris-HCl (pH 7.5), 24 mM KCl, 4 mM MgCl2, 2 mM DTT, 1.8 mM spermidine, 1 mM ATP, 6.5% (w/v) glycerol, and 0.1 mg/ml BSA. The reactions were stopped using […] of a reaction stop solution (40% sucrose, 100 mM Tris-HCl (pH 7.5), 1 mM EDTA, 0.5 mg/ml bromophenol blue).

The test system of test [2] is Methicillin sensitive S. aureus 209P. The test can be described thus: In vitro infectivity assay (MIC), Exp. Ex. 2-1. In kind it is cell-based, Staphylococcus aureus. Particulars: Staphylococcus aureus, 209P / MSSA; Gram-positive; microdilution, MIC after 24 h; read-out: MIC MSSA 209P. The method, then: as §1
as §2, with “vancomycin-resistant enterococci (VRE),” for “methicillin-resistant Staphylococcus aureus (MRSA),”, “(VISA), methicillin-resistant Staphylococcus aureus (MRSA), and” for “(VISA),”, “(MSSA)” for “(MSSA), and vancomycin-resistant enterococci (VRE)”
(Broth dilution looks for growth in wells or tubes with falling amounts of substance.)

The test system of test [3] is Methicillin-resistant S. aureus COL. The test can be described thus: In vitro infectivity assay (MIC), Exp. Ex. 2-1. Type of test: cell-based, Staphylococcus aureus. Particulars: Staphylococcus aureus, MRSA; Gram-positive; microdilution, MIC after 24 h. The method, then: as §1
as §2, with “vancomycin-resistant enterococci (VRE),” for “methicillin-resistant Staphylococcus aureus (MRSA),”, “(VISA), methicillin-resistant Staphylococcus aureus (MRSA), and” for “(VISA),”, “(MSSA)” for “(MSSA), and vancomycin-resistant enterococci (VRE)”

Test [4] has as its system Methicillin-resistant S. aureus N315. The test can be described thus: In vitro infectivity assay (MIC), Exp. Ex. 2-1. In kind it is cell-based, Staphylococcus aureus. Particulars: Staphylococcus aureus, MRSA; Gram-positive; microdilution, MIC after 24 h; read-out: MIC MRSA N315. The method, then:
as §1
as §2, with “vancomycin-resistant enterococci (VRE),” for “methicillin-resistant Staphylococcus aureus (MRSA),”, “(VISA), methicillin-resistant Staphylococcus aureus (MRSA), and” for “(VISA),”, “(MSSA)” for “(MSSA), and vancomycin-resistant enterococci (VRE)”

Test [5] relates to Methicillin-resistant S. aureus OM481. The test can be described thus: In vitro infectivity assay (MIC), Exp. Ex. 2-1. Particulars: Staphylococcus aureus, MRSA; Gram-positive; microdilution, MIC after 24 h; read-out: MIC MRSA OM481. In kind it is cell-based, Staphylococcus aureus. The method, then: as §1
as §2, with “vancomycin-resistant enterococci (VRE),” for “methicillin-resistant Staphylococcus aureus (MRSA),”, “(VISA), methicillin-resistant Staphylococcus aureus (MRSA), and” for “(VISA),”, “(MSSA)” for “(MSSA), and vancomycin-resistant enterococci (VRE)”

Test [6] relates to Methicillin-resistant S. aureus OM584. The test can be described thus: In vitro infectivity assay (MIC), Exp. Ex. 2-1. In kind it is cell-based, Staphylococcus aureus. Particulars: Staphylococcus aureus, MRSA; Gram-positive; microdilution, MIC after 24 h; read-out: MIC MRSA OM584. The method, then: as §1
as §2, with “vancomycin-resistant enterococci (VRE),” for “methicillin-resistant Staphylococcus aureus (MRSA),”, “(VISA), methicillin-resistant Staphylococcus aureus (MRSA), and” for “(VISA),”, “(MSSA)” for “(MSSA), and vancomycin-resistant enterococci (VRE)”

Test [7] concerns Streptococcus pneumoniae R6. The test can be described thus: In vitro infectivity assay (MIC), Exp. Ex. 2-1. In kind it is cell-based. The settings on record: Streptococcus pneumoniae, R6, 24 h, read-out: MIC S. Pneumoniae R6.
For a further test, the system named is Escherichia coli K-12. Description: Antibacterial activity (MIC) against Gram-negative strains, microdilution. In kind it is cell-based. The settings on record: K12, MIC after 24 h, read-out: MIC (Gram-nagative) K-12. The method, then: as §1
Test [8] concerns Pseodomonas aeruginosa PAOI. The description is as above. Particulars: MIC after 24 h, read-out: MIC (Gram-nagative) PAO1. In kind it is cell-based. The method, then:
as §1

The target of the next test is T2, E. coli DNA gyrase (Escherichia coli, UniProt P0AES4+P0AES6).
T2 construct: purchased John Innes Enterprises #K0001
T2 sequence (P0AES4 whole entry, one chain of several): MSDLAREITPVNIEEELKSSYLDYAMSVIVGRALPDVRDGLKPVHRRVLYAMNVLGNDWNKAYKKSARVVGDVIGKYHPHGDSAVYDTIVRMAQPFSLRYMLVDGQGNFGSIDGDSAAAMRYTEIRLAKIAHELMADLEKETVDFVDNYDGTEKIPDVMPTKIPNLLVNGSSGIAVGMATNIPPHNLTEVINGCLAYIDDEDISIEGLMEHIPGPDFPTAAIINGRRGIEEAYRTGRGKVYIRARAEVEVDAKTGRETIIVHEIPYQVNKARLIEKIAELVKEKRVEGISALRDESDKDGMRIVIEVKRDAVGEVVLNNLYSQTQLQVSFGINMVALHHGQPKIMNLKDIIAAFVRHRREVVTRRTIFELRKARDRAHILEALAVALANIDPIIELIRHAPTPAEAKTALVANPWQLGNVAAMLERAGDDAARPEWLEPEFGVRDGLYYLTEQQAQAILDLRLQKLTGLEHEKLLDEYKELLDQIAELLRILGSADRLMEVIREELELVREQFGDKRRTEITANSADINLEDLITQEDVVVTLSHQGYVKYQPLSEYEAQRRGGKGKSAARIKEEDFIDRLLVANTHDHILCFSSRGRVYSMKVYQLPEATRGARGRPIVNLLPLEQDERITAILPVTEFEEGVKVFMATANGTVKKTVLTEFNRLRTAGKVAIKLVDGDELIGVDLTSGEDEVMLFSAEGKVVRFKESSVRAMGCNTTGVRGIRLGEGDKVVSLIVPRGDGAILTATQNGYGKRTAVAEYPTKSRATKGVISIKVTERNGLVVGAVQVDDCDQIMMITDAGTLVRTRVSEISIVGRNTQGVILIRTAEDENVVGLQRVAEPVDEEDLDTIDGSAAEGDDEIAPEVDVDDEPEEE
The test can be described thus: DNA gyrase inhibition (supercoiling kit), Exp. Ex. 2-2. In kind it is biochemical. The method, then: as §3, with “1” for “One”

Values after ≈ are worked out from the molar mass of the structure shown.

T1 sequence (P0AES4 whole entry, one chain of several): as above

Turning to `O=C(O[C@H]1[C@H](Oc2c(-c3ccc(O)c(O)c3)oc3cc(O)cc(O)c3c2=O)O[C@H](CO)[C@@H](O)[C@@H]1OC(=O)c1ccc(F)cc1)c1ccc(F)cc1` [Compound 15g, 2-(3′,4′-Dihydroxy)-5,7-dihydroxy-3-β-D-(2″,3″-di-p-flurobenzoyloxy)glucosyl-4H-chromen-4-one], the “MIC MRSA N315” value in the test with MRSA N315 came out at 2 µg/mL (≈ 2.82 µM). In addition, the “MIC MRSA OM481” value in the test with MRSA OM481 amounted to 16 µg/mL (≈ 22.6 µM). The “MIC MRSA OM58” value in the test on MRSA OM58 is 16 µg/mL (≈ 22.6 µM). For the same molecule, the “MIC MSS 209P” value with MSSA FDA 209P stood at 2 µg/mL (≈ 2.82 µM). Moreover, in the test with VISA Mu50, the “MIC VISA Mu50” value came to 2 µg/mL (≈ 2.82 µM). Moreover, the “MIC VRE FN-1” value in the test on VRE FN-1 came to 8 µg/mL (≈ 11.3 µM). Moreover, in the test with VRE NCTC12201, the “MIC VRE NCTC 12201” value stood at 8 µg/mL (≈ 11.3 µM). Moreover, in [1], the “Gyrase inhibitory activity IC50” value amounted to 4.25 µg/mL.

As a reminder, the MIC is the lowest concentration found to suppress growth. The IC50 is the concentration at which inhibition is half-maximal. With `CCn1cc(C(=O)O)c(=O)c2cc(F)c(N3CCNCC3)cc21` [Norfloxacin, norfloxacin, reference compound], the MIC was found to be 2 µg/mL (≈ 6.26 µM) in the test with MRSA N315 (Staphylococcus aureus, read-out: MIC MRSA N315); 128 µg/mL (≈ 401 µM) in the test on MRSA OM481 (Staphylococcus aureus, read-out: MIC MRSA OM481); 64 µg/mL (≈ 200 µM) in the test with MRSA OM58 (Staphylococcus aureus, read-out: MIC MRSA OM58); 0.5 µg/mL (≈ 1.57 µM) in the test with MSSA FDA 209P (Staphylococcus aureus, read-out: MIC MSS 209P); 0.5 µg/mL (≈ 1.57 µM) in test [2]; 1 µg/mL (≈ 3.13 µM) in test [3]. Also, the minimum inhibitory concentration (MIC) in test [4] was 2 µg/mL (≈ 6.26 µM); in [5], 64 µg/mL (≈ 200 µM); in test [6] it was 128 µg/mL (≈ 401 µM); in [7], 0.25 µg/mL (≈ 0.783 µM); with Escherichia coli K-12 it was 0.25 µg/mL (≈ 0.783 µM); in [8], 0.25 µg/mL (≈ 0.783 µM). Moreover, the IC50 in test [1] (read-out: Gyrase inhibitory activity IC50 (converted)) was 908 nM; against E. coli DNA gyrase, 90 nM.
